Test results from patent publication US20060257861A1 (priority 2005, published 2006).

Legend:
Type in all cases: biochemical
[1] = biological target: T1, ACE2 (Mus musculus, UniProt Q8R0I0); assay: SELDI-TOF-MS ACE assay, kidney extract incubated with AngI (ACE2 activity); conditions: AngI + kidney extract + MLN 4760
T1 construct: Kidney extract (source of ACE1 & ACE2); from tissue; host or cells: kidney extract
Procedure: FIG. 3: SELDI-TOF-MS ACE assay. Kidney extract (source of ACE1 & ACE2) were incubated with AngI A: kidney extract control; B: AngI; C: AngI+kidney extract, showing peptides generated from ACE1 & ACE2; D: AngI+kidney extract+MLN 4760 (ACE2 inhibitor).

[2] = tested on: ACE1
[3] = tested on: ACE1; remark: listed apart in the source

T1 sequence (Q8R0I0 18-805): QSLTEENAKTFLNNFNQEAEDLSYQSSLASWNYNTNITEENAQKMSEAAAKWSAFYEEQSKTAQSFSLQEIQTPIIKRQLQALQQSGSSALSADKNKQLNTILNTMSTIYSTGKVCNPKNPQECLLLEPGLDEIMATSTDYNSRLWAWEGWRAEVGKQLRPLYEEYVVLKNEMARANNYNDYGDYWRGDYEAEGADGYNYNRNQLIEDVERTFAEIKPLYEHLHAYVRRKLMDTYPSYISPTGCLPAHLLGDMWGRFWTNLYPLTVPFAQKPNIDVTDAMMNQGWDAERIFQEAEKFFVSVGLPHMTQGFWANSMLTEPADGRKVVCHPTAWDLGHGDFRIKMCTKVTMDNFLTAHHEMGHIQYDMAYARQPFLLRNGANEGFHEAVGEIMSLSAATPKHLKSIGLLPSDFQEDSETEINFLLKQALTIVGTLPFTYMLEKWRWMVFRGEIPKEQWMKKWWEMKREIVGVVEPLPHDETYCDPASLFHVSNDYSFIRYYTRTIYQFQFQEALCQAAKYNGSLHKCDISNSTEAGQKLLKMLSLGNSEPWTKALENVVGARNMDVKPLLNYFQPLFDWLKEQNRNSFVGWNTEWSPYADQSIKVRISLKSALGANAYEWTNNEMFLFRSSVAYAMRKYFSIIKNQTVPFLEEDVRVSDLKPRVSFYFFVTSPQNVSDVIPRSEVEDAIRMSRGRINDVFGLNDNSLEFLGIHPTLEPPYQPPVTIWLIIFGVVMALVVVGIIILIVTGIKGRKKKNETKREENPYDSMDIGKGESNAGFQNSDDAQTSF

## CC(C)C[C@H](N[C@@H](Cc1cncn1Cc1cc(Cl)cc(Cl)c1)C(=O)O)C(=O)O [MLN 4760]
[1]
  cleavage of AngI to Ang (1-7): inhibited
[2]
  effect on the formation of AngII: no effect
[3]
  AngII level: increased
  effect on ACE1: without affecting ACE1
